Test results taken from US10813356B2, “Herbicidal composition comprising cinmethylin and dimethenamid” (BASF Agro B.V., priority 2015, dated 2020).

Assays:
Conditions in all cases: 20 DAT
[1] = tested on: POLCO; assay: Greenhouse preemergence herbicidal activity; assay type: in vivo, Polygonum convolvulus
Description: (§1) The test plants have been seeded, separately for each species, in plastic containers in sandy loamy soil containing 5% of organic matter.
(§2) The containers were irrigated gently to promote germination and growth and subsequently covered with transparent plastic hoods until the plants had rooted.
(§3) The plants have been cultivated due to their individual requirements at 10-25° C. and 20-35° C.
(§4) The plants were irrigated due to their necessity.
(§5) The racemic mixture (±)-2-exo-(2-Methylbenzyloxy)-1-methyl-4-isopropyl-7-oxabicyclo[2.2.1]heptane was used as herbicide A and formulated as emulsifiable concentrates with an active ingredient concentration of 50 g/l, 100 g/l or 750 g/l respectively.
(§6) Dimethenamid-P was used as emulsifiable concentrate (EC) formulation having an active ingredient concentration of 720 g/l.
(§7) In the following experiments, the herbicidal activity for the individual herbicidal compositions (solo and mixture applications) was assessed 20 days after treatment (DAT).
(§8) The evaluation for the damage on undesired weeds caused by the chemical compositions was carried out using a scale from 0 to 100%, compared to the untreated control plants. Here, 0 means no damage and 100 means complete destruction of the plants.
(§9) E=X+Y−(X·Y/100) where X=effect in percent using herbicide A at an application rate a; • Y=effect in percent using herbicide B at application rate b; • E=expected effect (in %) of herbicide A+herbicide B at application rates a+b.
(§10) The value E corresponds to the effect (plant damage or injury) which is to be expected if the activity of the individual compounds is additive. If the observed effect is higher than the value E calculated according to the Colby equation, a synergistic effect is present.

[2] = tested on: THLAR; assay: Greenhouse preemergence herbicidal activity; assay type: in vivo, Thlaspi arvense
Description: as §1, §2, §3, §4, §5, §6, §7, §8, §9, §10

[3] = tested on: SSYOF; assay: Greenhouse preemergence herbicidal activity; assay type: in vivo, Sisymbrium officinale
Description: as §1, §2, §3, §4, §5, §6, §7, §8, §9, §10

[4] = tested on: ANTAR; assay: Greenhouse postemergence herbicidal activity; assay type: in vivo, Anthemis arvensis
Description: as §1
(§11) For the post emergence treatment, the plants were first grown to the 2 leaf station (GS 12). Here, the herbicidal compositions were suspended or emulsified in water as distribution medium and sprayed using finely distributing nozzles.
as §3, §4, §5, §6, §7, §8, §9, §10

[5] = tested on: BRSNW; assay: Greenhouse postemergence herbicidal activity; assay type: in vivo, Brassica napus
Description: as §1, §11, §3, §4, §5, §6
(§12) In the following experiments, the herbicidal activity for the individual herbicidal compositions (solo and mixture applications) was assessed 20 days after treatment (DAT). […]
as §10

[6] = tested on: ALOMY; assay: Greenhouse preemergence herbicidal activity; assay type: in vivo, Alopecurus myosuroides
Description: as §1, §2, §3, §4, §5, §6, §12, §10

[7] = tested on: ABUTH; assay: Greenhouse preemergence herbicidal activity; assay type: in vivo, Abutilon theophrasti
Description: as §1, §2, §3, §4, §5, §6, §7, §8, §9, §10

[8] = tested on: AVEFA; assay: Greenhouse preemergence herbicidal activity; assay type: in vivo, Avena fatua
Description: as §1, §2, §3, §4, §5, §6, §7, §8, §9, §10

[9] = tested on: HELAN; assay: Greenhouse preemergence herbicidal activity; assay type: in vivo, Helianthus annuus
Description: as §1, §2, §3, §4, §5, §6, §12, §10

[10] = tested on: AMBEL; assay: Greenhouse preemergence herbicidal activity; assay type: in vivo, Ambrosia elatior
Description: as §1, §2, §3, §4, §5, §6, §12, §10

[11] = tested on: SORHA; assay: Greenhouse preemergence herbicidal activity; assay type: in vivo, Sorghum halepense
Description: as §1, §2, §3, §4, §5, §6, §7, §8, §9, §10

[12] = tested on: GALAP; assay: Greenhouse preemergence herbicidal activity; assay type: in vivo, Galium aparine
Description: as §1, §2, §3, §4, §5, §6, §7, §8, §9, §10

[13] = tested on: ANTAR; assay: Greenhouse preemergence herbicidal activity; assay type: in vivo, Anthemis arvensis
Description: as §1, §2, §3, §4, §5, §6, §7, §8, §9, §10

[14] = solo Dimethenamid-P 37.5 g ai/ha
[15] = solo Dimethenamid-P 62.5 g ai/ha
[16] = solo Dimethenamid-P 125 g ai/ha
[17] = solo Dimethenamid-P 250 g ai/ha
[18] = solo Dimethenamid-P 500 g ai/ha
[19] = solo Dimethenamid-P 150 g ai/ha
[20] = solo Dimethenamid-P 300 g ai/ha

COC[C@H](C)N(C(=O)CCl)c1c(C)csc1C [Dimethenamid-P, (S)-2-chloro-N-(2,4-dimethyl-3-thienyl)-N-(2-methoxy-1-methylethyl)acetamide]
herbicidal activity [1, 14]: 0% | herbicidal activity [1, 15]: 0% | herbicidal activity ([1]; solo Dimethenamid-P 75 g ai/ha): 0% | herbicidal activity [1, 16]: 0% | herbicidal activity [1, 17]: 30% | herbicidal activity [1, 18]: 60% | herbicidal activity [2, 16]: 40% | herbicidal activity [2, 17]: 70% | herbicidal activity [2, 18]: 90% | herbicidal activity [3, 15]: 0% | herbicidal activity [3, 16]: 70% | herbicidal activity [3, 17]: 98% | herbicidal activity [4, 14]: 0% | herbicidal activity ([4]; solo Dimethenamid-P 75 g ai/ha): 0% | herbicidal activity [4, 19]: 35% | herbicidal activity [4, 20]: 45% | herbicidal activity ([5]; solo Dimethenamid-P 75 g ai/ha): 20% | herbicidal activity [6, 15]: 25% | herbicidal activity [7, 16]: 10% | herbicidal activity [7, 17]: 25% | herbicidal activity [8, 14]: 0% | herbicidal activity [8, 15]: 0% | herbicidal activity ([8]; solo Dimethenamid-P 75 g ai/ha): 0% | herbicidal activity [8, 16]: 25% | herbicidal activity [9, 18]: 30% | herbicidal activity [10, 16]: 35% | herbicidal activity [11, 14]: 30% | herbicidal activity ([11]; solo Dimethenamid-P 75 g ai/ha): 70% | herbicidal activity [12, 15]: 20% | herbicidal activity [12, 19]: 70% | herbicidal activity [12, 17]: 75% | herbicidal activity [12, 20]: 75% | herbicidal activity [12, 18]: 80% | herbicidal activity [13, 14]: 20% | herbicidal activity [13, 15]: 75% | herbicidal activity ([13]; solo Dimethenamid-P 75 g ai/ha): 50% | herbicidal activity [13, 16]: 95% | herbicidal activity [13, 19]: 85% | herbicidal activity [13, 17]: 98% | herbicidal activity [13, 20]: 90%

(±)-2-exo-(2-Methylbenzyloxy)-1-methyl-4-isopropyl-7-oxabicyclo[2.2.1]heptane [herbicide A]
herbicidal activity ([1]; solo herbicide A 31.25 g ai/ha): 0% | herbicidal activity ([1]; solo herbicide A 62.5 g ai/ha): 0% | herbicidal activity ([1]; solo herbicide A 125 g ai/ha): 0% | herbicidal activity ([1]; solo herbicide A 250 g ai/ha): 0% | herbicidal activity ([2]; solo herbicide A 62.5 g ai/ha): 65% | herbicidal activity ([2]; solo herbicide A 125 g ai/ha): 75% | herbicidal activity ([2]; solo herbicide A 500 g ai/ha): 90% | herbicidal activity ([3]; solo herbicide A 31.25 g ai/ha): 0% | herbicidal activity ([3]; solo herbicide A 62.5 g ai/ha): 0% | herbicidal activity ([3]; solo herbicide A 125 g ai/ha): 50% | herbicidal activity ([4]; solo herbicide A 62.5 g ai/ha): 0% | herbicidal activity ([4]; solo herbicide A 125 g ai/ha): 0% | herbicidal activity ([4]; solo herbicide A 250 g ai/ha): 40% | herbicidal activity ([4]; solo herbicide A 500 g ai/ha): 65% | herbicidal activity ([5]; solo herbicide A 125 g ai/ha): 0% | herbicidal activity ([6]; solo herbicide A 31.25 g ai/ha): 85% | herbicidal activity ([7]; solo herbicide A 62.5 g ai/ha): 55% | herbicidal activity ([7]; solo herbicide A 125 g ai/ha): 65% | herbicidal activity ([8]; solo herbicide A 31.25 g ai/ha): 0% | herbicidal activity ([8]; solo herbicide A 125 g ai/ha): 50% | herbicidal activity ([9]; solo herbicide A 125 g ai/ha): 0% | herbicidal activity ([10]; solo herbicide A 62.5 g ai/ha): 0% | herbicidal activity ([11]; solo herbicide A 62.5 g ai/ha): 80% | herbicidal activity ([11]; solo herbicide A 125 g ai/ha): 90% | herbicidal activity ([12]; solo herbicide A 31.25 g ai/ha): 0% | herbicidal activity ([12]; solo herbicide A 125 g ai/ha): 20% | herbicidal activity ([12]; solo herbicide A 250 g ai/ha): 65% | herbicidal activity ([12]; solo herbicide A 500 g ai/ha): 80% | herbicidal activity ([13]; solo herbicide A 31.25 g ai/ha): 0% | herbicidal activity ([13]; solo herbicide A 250 g ai/ha): 40% | herbicidal activity ([13]; solo herbicide A 500 g ai/ha): 65%
